Measurements as given in patent US20210223229A1, “IMMUNE FUNCTION INSPECTION METHOD, CANCER PATIENT CATEGORIZATION METHOD, CANCER TREATMENT EFFICACY PREDICTION METHOD, AGENT FOR INCREASING INTRACELLULAR CALCIUM ION CONCENTRATION, AGENT FOR INCREASING SELECTIVE FUNCTION OF EFFECTOR MEMORY (EM) AND EFFECTOR (EFF) IN TUMOR TISSUE, AND METHOD FOR …” (NATIONAL UNIVERSITY CORPORATION OKAYAMA UNIVERSITY, priority 2016, published 2021).
“Also recorded” adds a separate entry of the source.

How the values were obtained:
mouse CD8T cells = test: Detection of intracellular calcium ion in mouse tumor-infiltrating and lymph node lymphocytes after metformin administration; format: in vivo, C57BL/6 mice; conditions: 5 mg/mL metformin free-water-drinking for 7 days
Description: 2×10^5 MO-5 (OVA-expressing B16 melanoma cell strain) was intradermally inoculated to C57BL/6 mice; 7 days after the transplantation, free-water-drinking oral administration of 5 mg/mL metformin was started. Seven days after the administration (14 days after the transplantation), the lymph node (LN) and the tumor tissue (Tumor) were excised, and the tumor-infiltrating lymphocytes and lymphocytes of the lymph node were collected. After the cells were washed with FCS(−)RPMI, the cells were stained using antimouse CD3 antibody BV510, antimouse CD8 antibody APC-Cy7, 1 Fluo4, and 1 Fura Red for 30 minutes at 37° C. After the staining, the cells were washed with FCS(−)RPMI warmed at 37° C., followed by measurement of the background of intracellular calcium ions by a flow cytometer for 30 seconds. After the background measurement, the cells were immediately stimulated by 100 ng/ml PMA and 5 ionomycin, and the increase in calcium ions in the mouse CD8T cells by stimulation was measured (FIG. 1).

[1] = tested on: tumor-infiltrating CD8T cells; test: Memory phenotype of antigen-specific tumor-infiltrating CD8T cells and glucose (2-NBDG) uptake in each cell fraction; format: in vivo, C57BL/6 mice
Description: 2×10^5 MO-5 was intradermally inoculated to C57BL/6 mice; 7 days after the transplantation, free-water-drinking oral administration of 5 mg/mL metformin was started. Seven days after the administration (14 days after the transplantation), the tumor tissue was excised, and tumor-infiltrating lymphocytes were separated. After the separation, the lymphocytes were washed with 0.1% BSA/PBS, and staining was performed with antimouse CD8 antibody APC-Cy7, antimouse CD62L antibody BV421, antimouse CD44 antibody PerCP, antimouse KLRG1 antibody APC, and 400 μM 2-NBDG (2-[N-(7-nitrobenz-2-oxa-1,3-diazol-4-yl) amino]-2-deoxy-d-glucose) for 30 minutes at 4° C. After washing with 0.1% BSA/PBS, frequency and memory phenotype (CD44, CD62L, KLRG1) of antigen-specific tumor-infiltrating CD8T cells, and deoxyglucose (2-NBDG) uptake in each cell fraction were analyzed using a flow cytometer (FIG. 2).

[2] = tested on: peripheral blood CD8T cells of cancer patients; test: Multifunctionality of human CD8T cells under a low glucose condition (intracellular cytokine staining, FACS); format: cell-based; conditions: for number of CD8T cells producing three cytokines (IL-2, TNFα, IFNγ): 10 μM metformin 6 hours pre-culture, PMA/ionomycin stimulation
Description: FIG. 4: Analysis of multifunctionality of human CD8T-cells under a low glucose condition. Peripheral blood lymphocytes (PBMC) w/o 10 μM metformin were cultured for 6 hours. Subsequently, after washing, the cells were cultured for 12 hours at each glucose concentration. At the final 6 hours, the cells were cultured with PMA stimulation. After the culture, intracellular cytokine was stained with an antibody, followed by FACS analysis. It was confirmed that the multifunctionality of peripheral blood CD8T cells of cancer patients were recovered by being treated with metformin in advance, even in a low glucose environment, i.e., 1.0 mM.
Cryopreserved human PBMC obtained from cancer patients were thawed and cultured for 6 hours in the presence of FCS(−)RPMI 10 μM metformin. After the culture, the cells were separated and washed with FCS(−)Glc(−)RPMI. After the washing, the cells were subjected to stimulating culture for 6 hours by 50 ng/mL PMA and 2 ionomycin using RPMI containing 0.1, 1, 10 mM Glc in the presence of 1 monensin. The cells were separated and the cell-surface molecules were stained with antihuman CD8 antibody APC-Cy7, followed by a cell permeabilization treatment. The intracellular cytokines were stained with antihuman IL-2 antibody APC and antihuman TNFα antibody BV510, and […] IFNγ antibody FITC, followed by analysis using a flow cytometer (FIG. 4).

[3] = tested on: glucose transporter (Glut1) in tumor-infiltrating CD8T cells; test: Glucose transporter (Glut1) expression in tumor-infiltrating CD8T cells, MethA tumor; format: in vivo, BALB/c; conditions: metformin 5 mg/mL free-water-drinking from Day 7; Day 10 and Day 13; with and without PMA stimulation
Description: Tumor (MethA) 2×10^6 was intradermally injected to 8-week old BALB/c, and metformin (5 mg/mL) was continuously given by free-water-drinking from Day 7. Three and 6 days after the treatment (Day 10 and Day 13), the tumor-infiltrating T cells (TIL) were separated and stained with anti-CD8 antibody, and anti-glucose transporter (Glut1) antibody. Further, after stimulating culture in the presence of PMA/Ionomycin/Monencin for 6 hours, the cells were stained with anti-CD8 antibody and anti-glucose transporter (Glut1) antibody, followed by analysis using a flow cytometer.

[4] = tested on: Glut1-positive tumor-infiltrating CD8T cells; test: Multifunctionality of CD8T cells expressing Glut1, MethA tumor; format: in vivo, BALB/c
Description: Tumor (MethA) 2×10^6 was intradermally injected to 8-week old BALB/c, and metformin (5 mg/mL) was continuously given by free-water-drinking from Day 7. Three and 6 days after the treatment (Day 10 and Day 13), the tumor-infiltrating T cells (TIL) were separated. After stimulating culture in the presence of PMA/Ionomycin/Monencin for 6 hours, the cells were stained with anti-CD8 antibody, anti-glucose transporter (Glut1) antibody, and intracellular cytokines (IL-2/TNFα/IFNγ), followed by analysis using a flow cytometer. […] The proportion is increased by metformin administration. These facts indicate that, by confirming the Glut1 expression level in the tumor-infiltrating CD8T cells using a flow cytometer, it is possible to assume the immune status without performing a multifunctionality test. Further, by performing immunotherapy such as metformin administration, and confirming that the Glut1 expression level was increased in the CD8T cells by the therapy, it is possible to determine that the treatment had immune effects.

[5] = tested on: glucose transporter (Glut1) in CD8TIL; test: Change in Glut1 expression over time in CD8TIL, MethA tumor; format: in vivo, BALB/c; conditions: after 6-hour in-vitro culture; metformin 5 mg/mL from Day 7, 3 days of treatment
Description: Syngeneic tumor MethA (2×10^6) was intradermally injected to 8-week old BALB/c, and administration of metformin (5 mg/mL) and N-acetylcysteine (NAC, 10 mg/mL) was started from Day 7. Three days after the treatment, the tumor-infiltrating T cells (TIL) were separated, and cultured for 0, 1, 3 and 6 hours at 37° C. Therefore, the cells were stained with CD3, CD8, and glucose transporter (Glut1) antibodies, followed by analysis using a flow cytometer (FIG. 8).

[6] = tested on: glucose transporter (Glut1) in CD8TIL; test: Glut1 expression versus changes in glucose concentration in CD8TIL, MethA tumor; format: in vivo, BALB/c mice
Description: Syngeneic tumor (MethA) 2×10^6 was intradermally injected to 8-week old BALB/c mice, and administration of metformin (5 mg/mL) was started from Day 7. Three days after the treatment, the tumor-infiltrating T cells (TIL) were separated. After culture in the presence of a culture solution having a glucose concentration of 0, 0.1, 1.2, 6.1, 12.5, or 25 mM at 37° C. for 0, 1, 3, 6 hours, the cells were stained with CD3, CD8, and glucose transporter (Glut1) antibodies, followed by analysis using a flow cytometer (FIG. 9).

human CD8T cells = test: Calcium concentration in peripheral blood CD8T cells of cancer patients before and after metformin administration; format: in vivo; conditions: stage I, stage IIa and stage IV cancer patients; before vs after metformin
Description: In stage I, stage IIa, and stage IV cancer patients, changes in calcium concentration increase by PMA stimulation before and after metformin administration were measured. Human PBMC (human peripheral blood mononuclear cells) were collected before and after the metformin administration that was performed in accordance with the administration schedule shown in the figure, and subjected to stimulation with 100 ng/mL PMA and 5 ionomycin in the same manner as in Example 3, followed by measurement of calcium ion increase in human CD8T cells as a result of stimulation. Specifically, peripheral blood mononuclear cells (PBMC) were separated from peripheral blood by a gravity separation method, and 1×10^6 lymphocytes were incubated for 30 minutes at 37° C. in the presence of 1 μg/mL anti-human CD8 antibody and 1 μM Fluo4/FuraRed. The incubation was followed by washing with an AIM-V medium. After the washing, AIM-V was added and unstimulated (before stimulation) lymphocytes were collected by FACSCantoII for 20 minutes, thereby collecting baseline data. Thereafter, 100 ng/mL PMA and 2 μM ionomycin were added and stimulation was applied, followed by immediate collection by FACSCantoII, thereby obtaining data after stimulation. Consequently, waveforms according to the cytoplasmic calcium concentrations were detected.

[7] = tested on: OVA-expressing B16 melanoma cell strain MO5
Description: The four types of groups: an untreated group (C), and, 10 days after the tumor cell inoculation, sole use of aspirin, sole use of phenformin (Phen), combined use of aspirin and phenformin, each consisting of 5 mice, were prepared. Phenformin is a biguanide-based drug, like metformin. From Day 10 of the tumor cell inoculation, phenformin contained in a feed in an amount of 0.5% was given. Further, the feed was replaced by a normal feed every four days. Specifically, a phenformin-containing feed was given only on Day 10 to Day 14, and Day 18 to Day 22. A normal feed free of phenformin was given from Day 14 to Day 18, and Day 22 to Day 26. This administration method is based on the fact that there have been fatal cases by everyday administration of phenformin due to side effects.
In contrast, aspirin (600 μg/mL) was given by free water drinking, and the water drinking was continuously performed from Day 10.

[8] = 5 mg/mL metformin free-water-drinking for 7 days, MO-5 tumor

Question: Which results are given for `CN(C)C(=N)N=C(N)N` [metformin]?
Answer: intracellular calcium concentration by PMA/ionomycin stimulation (mouse CD8T cells; CD8T cells of lymph node (LN), vs non-administration group): the degree of increase was greater; intracellular calcium concentration by PMA/ionomycin stimulation (mouse CD8T cells; CD8T cells of tumor tissue (Tumor), MO-5 tumor): greatly increased; glycolysis system (2-NBDG uptake) of central memory ([1]; 5 mg/mL metformin): deactivates the glycolysis system; glycolysis system (2-NBDG uptake) of effector (eff) and effector memory (EM) ([1]; 5 mg/mL metformin): activates the glycolysis system; number and proportion of central memory [1, 8]: reduces; numbers and proportions of effector (eff) and effector memory (EM) [1, 8]: increased; number of CD8T cells producing three cytokines (IL-2, TNFα, IFNγ) ([2]; glucose concentration 0.1 mM): no difference; number of CD8T cells producing three cytokines (IL-2, TNFα, IFNγ) ([2]; glucose concentration 1 mM): significantly increased; multifunctionality of peripheral blood CD8T cells of cancer patients ([2]; low glucose environment 1.0 mM, treated with 10 μM metformin in advance): recovered; Glut1-positive group in tumor-infiltrating CD8T cells [3]: conspicuous increase; also recorded: increased; proportion of Glut1-positive groups with multifunctionality ([4]; metformin 5 mg/mL free-water-drinking from Day 7, PMA/Ionomycin/Monencin 6 hours): increased; Glut1-positive and multifunctional cell groups per tumor unit ([4]; metformin administration group): increased; Glut-1 expression in CD8TIL [5]: very high level; up-regulation of GLUT-1 in CD8TIL ([6]; 6-hour in-vitro culture, CD8TIL separated from metformin-administered mice): significant up-regulation; Glut-1 expression in CD8TIL ([6]; glucose concentration 0 mM): does not occur; Glut-1 expression, proportion of CD8TIL ([6]; glucose concentration of 0.1 mM, metformin-administered mice): 14.3%; calcium concentration by PMA stimulation in human CD8T cells (human CD8T cells): increase

Question: How did the “side effects of everyday administration” value ([7]; everyday administration of phenformin) turn out when `[H]/N=C(/N)N/C(=N/[H])NCCc1ccccc1` [phenformin] was run?
Answer: Its value is “fatal cases”.

Question: And the water drinking behaviour ([7]; mouse, in vivo)?
Answer: Its water drinking behaviour is “the mice stopped drinking water”.

Question: What about the “tumor growth inhibitory effects” value ([7]; phenformin 0.5% in feed Day 10-14 and Day 18-22, aspirin 600 μg/mL free water drinking from Day 10) of the same compound?
Answer: The value was “strong tumor growth inhibitory effects”.
